Reference: patent publication US8426587B2, “Haloallylamine inhibitors of SSAO/VAP-1 and uses therefor” (Pharmaxis Ltd., priority 2007, dated 2013)
Structures can show the parent of a compound that is named as a salt.

Experiments:
Human SSAO/VAP-1 = biological target: T1, Human SSAO/VAP-1 (Homo sapiens, UniProt Q16853); experiment: Inhibition of amine oxidase activity of purified human SSAO/VAP-1 (Amplex Red); type: biochemical; settings: purified human SSAO, 300 μM benzylamine
T1 sequence (Q16853 1-763): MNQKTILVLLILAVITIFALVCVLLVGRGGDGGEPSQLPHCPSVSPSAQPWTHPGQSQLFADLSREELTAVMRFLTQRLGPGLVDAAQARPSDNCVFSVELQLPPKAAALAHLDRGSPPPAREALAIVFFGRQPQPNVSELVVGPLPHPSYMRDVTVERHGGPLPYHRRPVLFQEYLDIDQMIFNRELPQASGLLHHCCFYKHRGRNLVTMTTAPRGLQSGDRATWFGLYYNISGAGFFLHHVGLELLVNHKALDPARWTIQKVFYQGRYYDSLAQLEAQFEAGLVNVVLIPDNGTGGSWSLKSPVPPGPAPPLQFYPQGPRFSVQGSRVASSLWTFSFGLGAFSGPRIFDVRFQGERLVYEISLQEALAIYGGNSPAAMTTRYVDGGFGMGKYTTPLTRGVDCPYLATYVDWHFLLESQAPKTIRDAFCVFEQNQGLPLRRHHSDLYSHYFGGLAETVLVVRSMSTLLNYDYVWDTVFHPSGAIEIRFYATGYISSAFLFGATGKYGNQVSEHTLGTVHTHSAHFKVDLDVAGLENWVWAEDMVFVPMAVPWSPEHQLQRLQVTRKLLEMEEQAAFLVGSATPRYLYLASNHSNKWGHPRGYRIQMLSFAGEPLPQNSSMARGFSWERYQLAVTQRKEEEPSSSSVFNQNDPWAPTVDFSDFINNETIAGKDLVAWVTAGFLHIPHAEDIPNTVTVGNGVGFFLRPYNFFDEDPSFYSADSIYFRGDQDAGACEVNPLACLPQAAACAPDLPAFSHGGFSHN
Description: (§1) To measure the SSAO activity, adipocyte homogenate (0.5 mg/mL) or adipocytes (adhering cells) containing 0.5 mM pargyline, or purified human SSAO was incubated in 0.1 M sodium phosphate buffer pH 7.4 with varying concentrations of test compounds for 30 min at 37° C. The homogenate was then incubated at 37° C. with 60 μM Amplex® Red, 0.75 U/mL HRP and 40 μM benzylamine (mouse SSAO) or 300 μM benzylamine (human SSAO) and the formation of resorufin was measured (excitation range 530-560 nm and emission at 590 nm) every 10 min in either a Tecan Infinite 200 or a BMG plate reader. The IC50 values were estimated using Graphpad Prism software. The IC50 is an estimation of the concentration of the test compound to inhibit the amine oxidase activity of SSAO/VAP-1 by 50%. The IC50 values of certain invention compounds are included in Table 1.

Mouse SSAO/VAP-1 = biological target: T2, Mouse SSAO/VAP-1 (Mus musculus, UniProt O70423); experiment: Inhibition of amine oxidase activity of mouse SSAO/VAP-1 (3T3-L1 adipocytes, Amplex Red); type: biochemical; settings: 3T3-L1 adipocyte SSAO, 40 μM benzylamine
T2 construct: Adipocytes were used as an SSAO source either as adherent cells or as a homogenate; endogenous in cells; host or cells: 3T3-L1 murine fibroblasts (ATCC) differentiated into adipocytes
T2 sequence (O70423 1-765): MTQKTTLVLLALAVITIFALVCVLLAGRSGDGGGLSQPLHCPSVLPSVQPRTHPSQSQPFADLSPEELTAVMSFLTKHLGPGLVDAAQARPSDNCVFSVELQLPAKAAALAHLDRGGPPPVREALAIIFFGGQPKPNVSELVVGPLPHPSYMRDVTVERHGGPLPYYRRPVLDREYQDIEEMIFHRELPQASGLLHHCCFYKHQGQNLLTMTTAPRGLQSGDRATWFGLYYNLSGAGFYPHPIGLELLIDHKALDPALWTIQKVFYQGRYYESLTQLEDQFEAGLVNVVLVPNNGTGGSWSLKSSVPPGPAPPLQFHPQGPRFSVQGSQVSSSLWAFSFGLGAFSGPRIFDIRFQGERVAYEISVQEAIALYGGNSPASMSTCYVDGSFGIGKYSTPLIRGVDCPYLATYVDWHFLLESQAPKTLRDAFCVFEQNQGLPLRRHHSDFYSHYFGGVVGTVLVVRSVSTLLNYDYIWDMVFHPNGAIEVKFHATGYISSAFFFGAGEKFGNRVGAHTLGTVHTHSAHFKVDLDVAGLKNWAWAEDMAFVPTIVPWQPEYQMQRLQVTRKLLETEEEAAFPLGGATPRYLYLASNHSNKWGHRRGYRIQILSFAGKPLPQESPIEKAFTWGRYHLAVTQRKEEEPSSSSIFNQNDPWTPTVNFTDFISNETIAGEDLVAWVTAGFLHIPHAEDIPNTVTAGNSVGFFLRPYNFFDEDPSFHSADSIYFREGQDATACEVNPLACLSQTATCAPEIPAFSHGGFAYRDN
Description: 3T3-L1 Murine fibroblasts were purchased from the American Type Culture Collection (ATCC, Rockville, Md.). Dulbecco's Modified Eagle Medium (DMEM) and fetal calf serum (FCS), antibiotics and Amplex® Red were obtained from Invitrogen (Carlsbad, Calif.). Tissue culture plastics and black clear-bottom 96 well plates were from BD Falcon (Bedford, Mass.). Bicinchoninic acid (BCA) reagent was from Pierce (Rockford, Ill.). All other materials were obtained from Sigma (St. Louis, Mo.).
3T3-L1 Fibroblasts were cultured in DMEM supplemented with 10% heat-inactivated FCS, 2 mM L-glutamine, 100 U/L penicillin and 100 μg/L streptomycin at 37° C. in 5% CO2. For differentiation into adipocytes, fibroblasts were cultured in DMEM with FCS for 1 or 2 days postconfluence, after which the cells were cultured for 3 days in DMEM containing 10% FCS, 350 nM insulin, 0.5 mM 3-isobutyl-1-methylxanthine, 250 nM dexamethasone, and 400 nM biotin and for 3 days in DMEM containing 10% FCS and 350 nM insulin. After differentiation, adipocytes were maintained in DMEM supplemented with 10% FCS. Adipocytes were used for experiments 8 to 11 days after the onset of differentiation, and the medium was renewed 2 or 3 days prior to each experiment. For culturing in black clear-bottom 96-well plates, cells were seeded at a 1:1 cell surface ratio, and differentiation was initiated 4 days postseeding. Cells were used between days 6-12 post-differentiation and between passages 7 and 20. Adipocytes were used as an SSAO source either as adherent cells or as a homogenate.
To prepare homogenate, 10 cm dishes of adipocytes were washed with HES buffer (20 mM HEPES, 1 mM EDTA, 250 mM sucrose, pH 7.4) and scraped in HES buffer containing 10 μg/mL leupeptin, 10 μM pepstatin and 1 mM PMSF. Cells were lysed by passage through a 23 G needle followed by passage through a 27 G needle. The lysate was spun at 500 g for 5 min and fat was removed. Protein concentration of the supernatant was measured using a BCA assay according to the manufacturer's instructions. The homogenate was stored at −80° C. until needed.
as §1

| IC50 (Human SSAO/VAP-1; 30 min at 37° C. preincubation) | IC50 (Mouse SSAO/VAP-1; 30 min at 37° C. preincubation) | IC50 (Human SSAO/VAP-1) | IC50 (Mouse SSAO/VAP-1) | SMILES |
| --- | --- | --- | --- | --- |
| < 1 µM | < 1 µM | – | – | CS(=O)(=O)c1ccc(OC/C(F)=C\CN)cc1.Cl [(E)-3-Fluoro-4-(4-(methylsulfonyl)phenoxy)but-2-en-1-amine hydrochloride] |
| < 1 µM | < 1 µM | – | – | Cc1nc2cc(OC/C(F)=C\CN)ccc2s1.Cl [(E)-3-Fluoro-4-(2-methylbenzo[d]thiazol-5-yloxy)but-2-en-1-amine hydrochloride] |
| < 1 µM | < 1 µM | – | – | C[C@H](NS(=O)(=O)c1ccc(OC/C(F)=C\CN)cc1)c1ccccc1.Cl [(S,E)-4-(4-Amino-2-fluorobut-2-enyloxy)-N-(1-phenylethyl)benzenesulfonamide] |
| – | – | 0.021 µM | 0.001 µM | NC/C(=C/F)CCc1ccc(F)cc1 [Mofegiline, reference compound] |

| SMILES | IC50 (Human SSAO/VAP-1; 30 min at 37° C. preincubation) | IC50 (Mouse SSAO/VAP-1; 30 min at 37° C. preincubation) | IC50 (Human SSAO/VAP-1) | IC50 (Mouse SSAO/VAP-1) |
| --- | --- | --- | --- | --- |
| NC/C=C(/F)COc1ccc(C(=O)NC2CCCCC2)cc1 [(E)-4-(4-amino-2-fluorobut-2-enyloxy)-N-cyclohexylbenzamide hydrochloride] | < 1 µM | < 1 µM | – | – |
